Measured values as given in US12371428B2 (Exelixis, Inc., priority 2019, dated 2025).

Tests used:
[1] = molecular target: Human Axl (residues H473-A894 with Q764R) (Homo sapiens (Human), UniProt P30530, Q764R); experiment: Human AXL kinase assay, 33P-phosphoryl transfer radiometric (Example A-1, KinaseProfiler); format: biochemical
Experimental: The reaction was initiated by the addition of the Mg/ATP mix. […] Incorporated ^33P was measured using the Wallac Microbeta scintillation counter (Perkin Elmer).

[2] = molecular target: Human Mer (residues R557-E882 with H628Q and R794A) (Homo sapiens, UniProt Q12866); experiment: Human Mer kinase assay, 33P-phosphoryl transfer radiometric (Example C-1, KinaseProfiler); format: biochemical; settings: protocol of Example C-1 (compounds 21-27, 41-47, 99, 104)
Experimental: Kinase activity and compound inhibition were investigated using the ^33P-Phosphoryl transfer radiometric kinase assay, performed using the KinaseProfiler™ service of Eurofins Pharma Discovery Services UK Limited. Dose-response experiments were performed using nine compound concentrations in a 96-well microtiter plate. For each assay, all compounds were prepared to a 50× final assay concentration (50 μM) in 100% DMSO, then diluted in a half-log series, with the final top concentration at 1 μM. This working stock of the compound was added to the assay well as the first component in the reaction, followed by the remaining components as detailed in the following assay protocols below. The positive control wells (100% kinase activity) contain all components of the reaction including 2% DMSO (control for solvent effects), except the compound of interest. Blank wells contain all components of the reaction, with the reference inhibitor, staurosporine. This reference compound was used to abolish kinase activity and generated the 0% kinase activity base-line. IC50 values were calculated by nonlinear regression analysis using the sigmoidal dose-response (variable slope) curve fit on XLFit version 5.3 (ID Business Solutions).
Example C-1: Human Mer (residues R557-E882 with H628Q and R794A, 0.7 nM) was incubated with 8 mM MOPS pH 7.0, 0.2 mM EDTA, 30 mM NaCl, 250 μM […] (SEQ ID NO:2), 10 mM magnesium acetate, and 10 μM [γ-^33P-ATP]. The reaction was initiated by the addition of the Mg/ATP mix. After incubation for 40 minutes at room temperature, the reaction was stopped by the addition of phosphoric acid to a concentration of 0.5%. A reaction aliquot of 10 μL was then spotted onto a P30 filtermat and washed four times for 4 minutes in 0.425% phosphoric acid and once in methanol prior to drying and scintillation counting. Incorporated ^33P was measured using the Wallac Microbeta scintillation counter (Perkin Elmer).

[3] = molecular target: AXL (phospho-AXL, Gas6-stimulated A-172 glioblastoma cells) (Homo sapiens (Human), UniProt P30530); experiment: AXL autophosphorylation ELISA in A-172 cells (Example E); format: cell-based; settings: cellular activity; AXL autophosphorylation ELISA in A-172 cells; read-out: Axl IC50
Procedure, shortened: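 Phospho-AXL in lysates was quantified by ELISA, normalised to DMSO (100%) and reference inhibitor (0%) controls. IC50 by 4-parameter logistic fit.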

[4] = molecular target: Human AXL (residues 464-885) (Homo sapiens (Human), UniProt P30530); experiment: Human AXL kinase assay, HTRF KinEase (Example A-2); format: biochemical
Experimental: Kinase activity and compound inhibition were also investigated using the HTRF® KinEase assay (Cisbio Cat #62TKOPEB) per manufacturer's instructions. In short, compounds were delivered in 300 nL volumes at 10 different concentrations in DMSO (3% final) to empty 384-well assay plates (Corning cat #3824). A mixture of enzyme, […] biotynlated peptide substrate, and buffer in 10 μL volume was added. The assay was started upon the addition of ATP (at Km). The 10 μL reaction was incubated at room temperature. The reaction was stopped upon the addition of detection buffer containing streptavidin-XL665 ([…]) and TK antibody-Eu3+(5 L).
Kinase activity normalized to DMSO (100% activity) and reference compound at […] and (0% activity) was calculated using the fluorescence ratio […]. IC50 values were calculated by nonlinear regression analysis using a 4-parameter logistic curve fit in ActivityBase XE (IDBS).
The mixture was added to the pre-plated compounds. […] The reaction was incubated at room temperature for 50 min and stopped upon the addition of SA-XL665 and TK-antibody both diluted in EDTA-containing kinase detection buffer (Cisbio). The kinase activity was calculated as stated above and the IC50 values were reported.

Sequence of AXL (phospho-AXL, Gas6-stimulated A-172 glioblastoma cells) (P30530 26-894): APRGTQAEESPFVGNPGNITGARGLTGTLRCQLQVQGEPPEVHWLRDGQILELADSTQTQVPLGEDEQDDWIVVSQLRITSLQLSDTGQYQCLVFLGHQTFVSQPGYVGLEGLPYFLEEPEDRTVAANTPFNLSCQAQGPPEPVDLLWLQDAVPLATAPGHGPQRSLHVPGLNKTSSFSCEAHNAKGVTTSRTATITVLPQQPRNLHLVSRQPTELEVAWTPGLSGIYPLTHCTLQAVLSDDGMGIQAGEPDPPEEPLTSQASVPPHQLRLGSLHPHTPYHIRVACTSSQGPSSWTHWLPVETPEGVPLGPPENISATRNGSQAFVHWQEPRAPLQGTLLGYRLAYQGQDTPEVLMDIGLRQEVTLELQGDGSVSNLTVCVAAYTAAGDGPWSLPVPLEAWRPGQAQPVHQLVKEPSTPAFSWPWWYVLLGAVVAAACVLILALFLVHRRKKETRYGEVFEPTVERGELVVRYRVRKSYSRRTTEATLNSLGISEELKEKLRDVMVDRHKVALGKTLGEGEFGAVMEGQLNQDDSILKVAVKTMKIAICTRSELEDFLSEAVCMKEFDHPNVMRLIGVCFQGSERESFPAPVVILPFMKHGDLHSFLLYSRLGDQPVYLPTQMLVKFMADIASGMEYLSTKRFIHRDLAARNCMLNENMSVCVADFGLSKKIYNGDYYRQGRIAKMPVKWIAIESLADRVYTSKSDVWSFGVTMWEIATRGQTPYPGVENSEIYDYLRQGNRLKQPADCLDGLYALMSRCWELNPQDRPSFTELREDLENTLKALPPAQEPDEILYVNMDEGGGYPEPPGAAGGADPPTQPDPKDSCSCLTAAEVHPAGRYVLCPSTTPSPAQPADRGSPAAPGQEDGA
Sequence of Human AXL (residues 464-885) (P30530 473-894): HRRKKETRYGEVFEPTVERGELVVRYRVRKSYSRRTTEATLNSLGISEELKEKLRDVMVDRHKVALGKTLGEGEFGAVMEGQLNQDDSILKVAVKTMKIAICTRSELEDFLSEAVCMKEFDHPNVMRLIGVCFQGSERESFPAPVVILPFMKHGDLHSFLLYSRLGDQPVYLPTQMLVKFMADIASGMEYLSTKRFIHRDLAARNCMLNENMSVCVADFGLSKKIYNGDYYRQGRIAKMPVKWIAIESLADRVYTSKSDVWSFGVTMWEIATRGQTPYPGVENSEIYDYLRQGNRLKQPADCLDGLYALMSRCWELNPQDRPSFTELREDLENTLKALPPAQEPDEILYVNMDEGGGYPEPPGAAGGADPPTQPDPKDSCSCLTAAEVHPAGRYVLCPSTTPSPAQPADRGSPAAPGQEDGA
Sequence of Human Axl (residues H473-A894 with Q764R) (P30530 473-894 Q764R): as the sequence (P30530 473-894) above, with Q292R counted along it
Sequence of Human Mer (residues R557-E882 with H628Q and R794A) (Q12866 21-999 limits assumed, stated change not applied): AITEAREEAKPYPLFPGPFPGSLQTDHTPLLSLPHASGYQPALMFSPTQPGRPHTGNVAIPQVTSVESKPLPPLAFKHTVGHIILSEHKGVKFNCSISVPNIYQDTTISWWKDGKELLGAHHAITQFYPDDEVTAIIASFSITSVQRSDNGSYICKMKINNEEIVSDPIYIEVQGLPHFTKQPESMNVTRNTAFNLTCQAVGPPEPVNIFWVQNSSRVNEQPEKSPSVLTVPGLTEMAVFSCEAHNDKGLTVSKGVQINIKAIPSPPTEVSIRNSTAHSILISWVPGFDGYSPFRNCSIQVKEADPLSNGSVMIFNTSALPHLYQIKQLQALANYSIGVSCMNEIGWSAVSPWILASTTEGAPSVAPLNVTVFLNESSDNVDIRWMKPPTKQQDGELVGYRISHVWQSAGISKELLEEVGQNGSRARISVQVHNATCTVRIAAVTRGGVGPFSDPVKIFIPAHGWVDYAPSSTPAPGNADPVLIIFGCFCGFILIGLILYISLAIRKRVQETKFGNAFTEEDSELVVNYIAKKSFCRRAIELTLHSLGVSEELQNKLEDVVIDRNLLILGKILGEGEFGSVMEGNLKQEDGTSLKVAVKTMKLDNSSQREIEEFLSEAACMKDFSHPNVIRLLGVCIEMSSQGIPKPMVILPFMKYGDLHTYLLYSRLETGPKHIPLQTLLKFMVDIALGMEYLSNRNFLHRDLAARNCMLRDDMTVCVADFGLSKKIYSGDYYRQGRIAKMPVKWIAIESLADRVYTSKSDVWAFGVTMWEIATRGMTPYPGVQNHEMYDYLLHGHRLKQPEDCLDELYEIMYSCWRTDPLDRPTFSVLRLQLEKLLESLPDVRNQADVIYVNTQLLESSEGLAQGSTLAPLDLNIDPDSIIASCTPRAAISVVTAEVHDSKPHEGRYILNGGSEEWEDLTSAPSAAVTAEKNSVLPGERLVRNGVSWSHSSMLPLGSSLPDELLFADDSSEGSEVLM

IC50 [1] [nM]	IC50 [2] [nM]	IC50 [3] [nM]	IC50 ([4]; protocol of Example A-2 (other compounds)) [nM]	IC50 ([4]; protocol of Example A-2) [nM]	Compound
> 300	> 300	< 100			COc1cc2nccc(Oc3ccc(NC(=O)c4c[nH]c(=S)n(-c5ccc(F)cc5)c4=O)cc3F)c2nc1OC [Compound 104, N-[4-[(6,7-Dimethoxy-1,5-naphthyridin-4-yl)oxy]-3-fluorophenyl]-3-(4-fluorophenyl)-4-oxo-2-sulfanylidene-1H-pyrimidine-5-carboxamide]
		< 100	< 100		COc1cc2ncnc(Oc3ccc(NC(=O)c4c5n(cc(-c6ccc(F)cc6)c4=O)CCC5)cc3F)c2cc1OC [Compound 406, N-[4-(6,7-dimethoxyquinazolin-4-yl)oxy-3-fluorophenyl]-6-(4-fluorophenyl)-7-oxo-2,3-dihydro-1H-indolizine-8-carboxamide]
		< 100		< 100	C=C(C)c1cnc2c(Oc3ccc(NC(=O)c4c(C)cc(C)n(-c5ccc(F)cc5)c4=O)cc3F)ccnc2c1 [Compound 457, 1-(4-fluorophenyl)-N-[3-fluoro-4-[(7-prop-1-en-2-yl-1,5-naphthyridin-4-yl)oxy]phenyl]-4,6-dimethyl-2-oxopyridine-3-carboxamide]
		< 100		< 100	CNc1nccc2c(Oc3ccc(NC(=O)c4cnc(C)n(-c5ccc(F)cc5)c4=O)cc3)ccnc12 [Compound 543, 1-(4-fluorophenyl)-2-methyl-N-[4-[[8-(methylamino)-1,7-naphthyridin-4-yl)oxy]phenyl]-6-oxopyrimidine-5-carboxamide]
